According to PubChem BioAssay AID2060620 (Molecular Pharmacology Branch, DTP, NCI, 2025):
Several values for one entry are separate records, joined by “and”; a condition that tells them apart may be missing. Identical values can stand only once. Blank lines part the entries; values can stand above or below the compound they belong to.

System: 328373-195-R-J1-PDC complex spheroids, viability % test/control
Assay: Anticancer human tumor 328373-195-R-J1-PDC patient-derived head and neck squamous carcinoma cell line growth inhibition [CLK]
Conditions: for viability, T/C: stronger effect = lower value
How it was run: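 Patient-derived tumor cells grown as complex spheroids with HUVEC endothelial cells and mesenchymal stem cells, treated with drug combinations. Concentrations descend in half-log steps from near clinical Cmax, or from 10 microM if Cmax unknown.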

[1] = curve of first compound, second compound 0.0316 µM
[2] = curve of first compound, second compound 0.1 µM
[3] = curve of first compound, second compound 0.316 µM
[4] = curve of first compound, second compound 1 µM
[5] = curve of first compound, second compound 3.16 µM
[6] = curve of first compound, second compound 10 µM
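Further: spheroids exposed to the agents for 7 days.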

SMILES: NC(=O)C(=Cn1cnc(-c2cc(C(F)(F)F)cc(C(F)(F)F)c2)n1)c1cncnc1 + CN1CCN(c2cc(C(=O)Nc3cc4cc(-c5cnn(C)c5)ccc4cn3)ccn2)CC1
IC50 [1]: 21.5 nM | IC50 [2]: 12.8 nM | IC50 [3]: < 9.49 nM | IC50 [4]: < 9.49 nM | IC50 [5]: < 9.49 nM | IC50 [6]: < 9.49 nM | viability, T/C (second compound 0.0316 µM, first compound 0.00949 µM): 78.8% | viability, T/C (second compound 0.0316 µM, first compound 0.03 µM): 38.3% | viability, T/C (second compound 0.0316 µM, first compound 0.0949 µM): 1.11% | viability, T/C (second compound 0.0316 µM, first compound 0.3 µM): 0.32% | viability, T/C (second compound 0.0316 µM, first compound 0.949 µM): 0.14% | viability, T/C (second compound 0.0316 µM, first compound 3 µM): 1.38% | viability, T/C (second compound 0.1 µM, first compound 0.00949 µM): 56.7% | viability, T/C (second compound 0.1 µM, first compound 0.03 µM): 31.2% | viability, T/C (second compound 0.1 µM, first compound 0.0949 µM): 0.33% | viability, T/C (second compound 0.1 µM, first compound 0.3 µM): 0.56% | viability, T/C (second compound 0.1 µM, first compound 0.949 µM): 0.08% | viability, T/C (second compound 0.1 µM, first compound 3 µM): 3.54% | viability, T/C (second compound 0.316 µM, first compound 0.00949 µM): 13.3% | viability, T/C (second compound 0.316 µM, first compound 0.03 µM): 1.99% | viability, T/C (second compound 0.316 µM, first compound 0.0949 µM): 1.27% | viability, T/C (second compound 0.316 µM, first compound 0.3 µM): 0.99% | viability, T/C (second compound 0.316 µM, first compound 0.949 µM): 0.07% | viability, T/C (second compound 0.316 µM, first compound 3 µM): 1.88% | viability, T/C (second compound 1 µM, first compound 0.00949 µM): 0.09% | viability, T/C (second compound 1 µM, first compound 0.03 µM): 0.12% | viability, T/C (second compound 1 µM, first compound 0.0949 µM): 2.09% | viability, T/C (second compound 1 µM, first compound 0.3 µM): 1.38% | viability, T/C (second compound 1 µM, first compound 0.949 µM): 2.09% | viability, T/C (second compound 1 µM, first compound 3 µM): 0.22% | viability, T/C (second compound 3.16 µM, first compound 0.00949 µM): 0.24% | viability, T/C (second compound 3.16 µM, first compound 0.03 µM): 1.6% | viability, T/C (second compound 3.16 µM, first compound 0.0949 µM): 0.1% | viability, T/C (second compound 3.16 µM, first compound 0.3 µM): 1.06% | viability, T/C (second compound 3.16 µM, first compound 0.949 µM): 0.12% | viability, T/C (second compound 3.16 µM, first compound 3 µM): 1.99% | viability, T/C (second compound 10 µM, first compound 0.00949 µM): 1.81% | viability, T/C (second compound 10 µM, first compound 0.03 µM): 0.08% | viability, T/C (second compound 10 µM, first compound 0.0949 µM): 0.93% | viability, T/C (second compound 10 µM, first compound 0.3 µM): 0.14% | viability, T/C (second compound 10 µM, first compound 0.949 µM): 1.29% | viability, T/C (second compound 10 µM, first compound 3 µM): 0.16%

SMILES: O=c1[nH]cc(F)c(=O)[nH]1 + CN1CCN(c2cc(C(=O)Nc3cc4cc(-c5cnn(C)c5)ccc4cn3)ccn2)CC1
IC50 [1]: 58.4 nM | IC50 [2]: 62.1 nM | IC50 [3]: < 31.6 nM | IC50 [4]: < 31.6 nM | IC50 [5]: < 31.6 nM | IC50 [6]: < 31.6 nM | viability, T/C (second compound 0.0316 µM, first compound 0.0316 µM): 76.7% | viability, T/C (second compound 0.0316 µM, first compound 0.1 µM): 26.6% | viability, T/C (second compound 0.0316 µM, first compound 0.316 µM): 13.9% | viability, T/C (second compound 0.0316 µM, first compound 1 µM): 9.49% | viability, T/C (second compound 0.0316 µM, first compound 3.16 µM): 10.6% | viability, T/C (second compound 0.0316 µM, first compound 10 µM): 13.6% | viability, T/C (second compound 0.1 µM, first compound 0.0316 µM): 74.7% | viability, T/C (second compound 0.1 µM, first compound 0.1 µM): 32.6% | viability, T/C (second compound 0.1 µM, first compound 0.316 µM): 12.5% | viability, T/C (second compound 0.1 µM, first compound 1 µM): 10.6% | viability, T/C (second compound 0.1 µM, first compound 3.16 µM): 10.2% | viability, T/C (second compound 0.1 µM, first compound 10 µM): 16.8% | viability, T/C (second compound 0.316 µM, first compound 0.0316 µM): 25.9% | viability, T/C (second compound 0.316 µM, first compound 0.1 µM): 14.3% | viability, T/C (second compound 0.316 µM, first compound 0.316 µM): 14.6% | viability, T/C (second compound 0.316 µM, first compound 1 µM): 7.98% | viability, T/C (second compound 0.316 µM, first compound 3.16 µM): 6.74% | viability, T/C (second compound 0.316 µM, first compound 10 µM): 5.92% | viability, T/C (second compound 1 µM, first compound 0.0316 µM): 0.13% | viability, T/C (second compound 1 µM, first compound 0.1 µM): 4.38% | viability, T/C (second compound 1 µM, first compound 0.316 µM): 0.56% | viability, T/C (second compound 1 µM, first compound 1 µM): 0.05% | viability, T/C (second compound 1 µM, first compound 3.16 µM): 2.73% | viability, T/C (second compound 1 µM, first compound 10 µM): 0.78% | viability, T/C (second compound 3.16 µM, first compound 0.0316 µM): 0.03% | viability, T/C (second compound 3.16 µM, first compound 0.1 µM): 3.69% | viability, T/C (second compound 3.16 µM, first compound 0.316 µM): 4.78% | viability, T/C (second compound 3.16 µM, first compound 1 µM): 0.03% | viability, T/C (second compound 3.16 µM, first compound 3.16 µM): 0.16% | viability, T/C (second compound 3.16 µM, first compound 10 µM): 0.08% | viability, T/C (second compound 10 µM, first compound 0.0316 µM): 0.03% | viability, T/C (second compound 10 µM, first compound 0.1 µM): 0.64% | viability, T/C (second compound 10 µM, first compound 0.316 µM): 2.65% | viability, T/C (second compound 10 µM, first compound 1 µM): 0.06% | viability, T/C (second compound 10 µM, first compound 3.16 µM): 4.08% | viability, T/C (second compound 10 µM, first compound 10 µM): 1.3%

IC50 (curve of compound): > 10000 nM
SMILES: C#Cc1c(F)ccc2cc(O)cc(-c3ncc4c(N5CC6CCC(C5)N6)nc(OCC56CCCN5CC(F)C6)nc4c3F)c12 (stereo not drawn)
viability, T/C (compound 0.0316 µM): 99.7% and 97.3% | viability, T/C (compound 0.1 µM): 85.4% and 93.6% | viability, T/C (compound 0.316 µM): 108% and 98.6% | viability, T/C (compound 1 µM): 96.1% and 92.8% | viability, T/C (compound 3.16 µM): 118% and 111% | viability, T/C (compound 10 µM): 89.6% and 94.6%

IC50 (curve of compound): > 300 nM
SMILES: C=CC(=O)Nc1cc(Nc2nccc(-c3cn(C)c4ccccc34)n2)c(OC)cc1N(C)CCN(C)C
viability, T/C (compound 0.000949 µM): 97.9% and 96% | viability, T/C (compound 0.003 µM): 96.8% and 91.2% | viability, T/C (compound 0.00949 µM): 94% and 91.6% | viability, T/C (compound 0.03 µM): 94.2% and 92.4% | viability, T/C (compound 0.0949 µM): 83.8% and 91.1% | viability, T/C (compound 0.3 µM): 91.3% and 84.8%
